# Test results reported in patent US8530493B2, “Indolopyridines as Eg5 kinesin modulators” (4SC AG, priority 2006, dated 2013).
# System: RKO p21 uninduced (proliferating) colon adenocarcinoma cells
# Test: Alamar Blue cell viability assay, RKO p21 uninduced (proliferating)
# Type: cell-based
# Conditions: Homo sapiens, Table B3, anti-proliferative/cytotoxic activity, 72 hours, read-out: −log EC50 RKO p21 uninduced (proliferating) (converted)
# Outline: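 RKO p21 or p27 subclones grown without Ponasterone A, i.e. proliferating, exposed 24 h after seeding to semi-log compound dilutions in DMEM/10% FCS (1% DMSO controls) for 72 h at 37° C. Alamar Blue fluorescence (544/590 nm) read relative to untreated cells; EC50 from dose-response curves, given as −log EC50 (mol/l).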
row,SMILES,EC50 [µM]
1,"CCN(CCCN1C(=O)N2[C@H](c3cccc(O)c3)c3[nH]c4ccc(Cl)cc4c3C[C@@]2(C)C1=O)CCOC (racemic) [Example 397, (3aSR,10RS)-6-Chloro-2-{3-[ethyl-(2-methoxy-ethyl)-amino]-propyl}-10-(3-hydroxy-phenyl)-3a-methyl-3a,4,9,10-tetrahydro-2,9,10a-triaza-cyclopenta[b]fluorene-1,3-dione]",≤ 0.0398
2,"CC(C)CNCCN1C(=O)N2[C@H](c3cccc(O)c3)c3[nH]c4ccc(OC(F)F)cc4c3C[C@@]2(C)C1=O (racemic) [Example 269, (3aSR,10RS)-6-(1,1-Difluoro-methoxy)-10-(3-hydroxy-phenyl)-2-(2-isobutylamino-ethyl)-3a-methyl-3a,4,9,10-tetrahydro-2,9,10a-triaza-cyclopenta[b]fluorene-1,3-dione]",≤ 0.0398
3,"CC(C)N(C)CCN1C(=O)N2[C@H](c3cccc(O)c3)c3[nH]c4cc(F)c(Cl)cc4c3C[C@@]2(C)C1=O (racemic) [Example 352, (3aSR,10RS)-6-Chloro-7-fluoro-10-(3-hydroxy-phenyl)-2-[2-(isopropyl-methyl-amino)-ethyl]-3a-methyl-3a,4,9,10-tetrahydro-2,9,10a-triaza-cyclopenta[b]fluorene-1,3-dione]",≤ 0.0398
4,"CC(C)CNCCN1C(=O)N2[C@H](c3cccc(O)c3)c3[nH]c4cc(F)c(Cl)cc4c3C[C@@]2(C)C1=O (racemic) [Example 340, (3aSR,10RS)-6-Chloro-7-fluoro-10-(3-hydroxy-phenyl)-2-(2-isobutylamino-ethyl)-3a-methyl-3a,4,9,10-tetrahydro-2,9,10a-triaza-cyclopenta[b]fluorene-1,3-dione]",0.0398 to 0.251
5,"C[C@@]12Cc3c([nH]c4cc(F)c(Cl)cc34)[C@@H](c3cccc(O)c3)N1C(=O)N(CCN1CCOCC1)C2=O (racemic) [Example 353, (3aSR,10RS)-6-Chloro-7-fluoro-10-(3-hydroxy-phenyl)-3a-methyl-2-(2-morpholin-4-yl-ethyl)-3a,4,9,10-tetrahydro-2,9,10a-triaza-cyclopenta[b]fluorene-1,3-dione]",0.0398 to 0.251
6,"COc1ccc2[nH]c3c(c2c1)C[C@@]1(C)C(=O)N(CCCNC(C)(C)C)C(=O)N1[C@@H]3c1cccc(O)c1 [Example 538, (3aS,10R)-2-(3-tert-Butylamino-propyl)-10-(3-hydroxy-phenyl)-6-methoxy-3a-methyl-3a,4,9,10-tetrahydro-2,9,10a-triaza-cyclopenta[b]fluorene-1,3-dione]",≤ 0.0398
7,"CCN(C)CCCN1C(=O)N2[C@H](c3cccc(O)c3)c3[nH]c4ccc(OC)cc4c3C[C@@]2(C)C1=O [Example 541, (3aS,10R)-2-[3-(Ethyl-methyl-amino)-propyl]-10-(3-hydroxy-phenyl)-6-methoxy-3a-methyl-3a,4,9,10-tetrahydro-2,9,10a-triaza-cyclopenta[b]fluorene-1,3-dione]",≤ 0.0398
8,"C[C@@]12Cc3c([nH]c4cc(F)c(Cl)cc34)[C@@H](c3cccc(O)c3)N1C(=O)N(CCCNCC1CC1)C2=O (racemic) [Example 460, (3aSR,10RS)-6-Chloro-2-[3-(cyclopropylmethyl-amino)-propyl]-7-fluoro-10-(3-hydroxy-phenyl)-3a-methyl-3a,4,9,10-tetrahydro-2,9,10a-triaza-cyclopenta[b]fluorene-1,3-dione]",0.0398 to 0.251
9,"COc1cc2c3c([nH]c2cc1F)[C@@H](c1cccc(O)c1)N1C(=O)N(CCCN2CCC(C)CC2)C(=O)[C@]1(C)C3 (racemic) [Example 327, (3aSR,10RS)-7-Fluoro-10-(3-hydroxy-phenyl)-6-methoxy-3a-methyl-2-[3-(4-methyl-piperidin-1-yl)-propyl]-3a,4,9,10-tetrahydro-2,9,10a-triaza-cyclopenta[b]fluorene-1,3-dione]",0.0398 to 0.251
10,"CC(C)NCCN1C(=O)N2[C@H](c3cccc(O)c3)c3[nH]c4ccc(OC(F)F)cc4c3C[C@@]2(C)C1=O (racemic) [Example 268, (3aSR,10RS)-6-(1,1-Difluoro-methoxy)-10-(3-hydroxy-phenyl)-2-(2-isopropylamino-ethyl)-3a-methyl-3a,4,9,10-tetrahydro-2,9,10a-triaza-cyclopenta[b]fluorene-1,3-dione]",≤ 0.0398
11,"COc1cc2c3c([nH]c2cc1F)[C@@H](c1cccc(O)c1)N1C(=O)N(CCCNC2CCC2)C(=O)[C@]1(C)C3 (racemic) [Example 333, (3aSR,10RS)-2-(3-Cyclobutylamino-propyl)-7-fluoro-10-(3-hydroxy-phenyl)-6-methoxy-3a-methyl-3a,4,9,10-tetrahydro-2,9,10a-triaza-cyclopenta[b]fluorene-1,3-dione]",0.0398 to 0.251
12,"CC(C)(C)NCCCN1C(=O)N2[C@H](c3cccc(O)c3)c3[nH]c4cc(F)c(Cl)cc4c3C[C@@]2(C)C1=O (racemic) [Example 464, (3aSR,10RS)-2-(3-tert-Butylamino-propyl)-6-chloro-7-fluoro-10-(3-hydroxy-phenyl)-3a-methyl-3a,4,9,10-tetrahydro-2,9,10a-triaza-cyclopenta[b]fluorene-1,3-dione]",0.0398 to 0.251
13,"COc1cc2c3c([nH]c2cc1F)[C@@H](c1cccc(O)c1)N1C(=O)N(CCN2CC=CC2)C(=O)[C@]1(C)C3 (racemic) [Example 262, (3aSR,10RS)-2-[2-(2,5-Dihydro-pyrrol-1-yl)-ethyl]-7-fluoro-10-(3-hydroxy-phenyl)-6-methoxy-3a-methyl-3a,4,9,10-tetrahydro-2,9,10a-triaza-cyclopenta[b]fluorene-1,3-dione]",0.0398 to 0.251
14,"C[C@@]12Cc3c([nH]c4ccc(OC(F)F)cc34)[C@@H](c3cccc(O)c3)N1C(=O)N(CCCN1CC=CC1)C2=O (racemic) [Example 238, (3aSR,10RS)-6-(1,1-Difluoro-methoxy)-2-[3-(2,5-dihydro-pyrrol-1-yl)-propyl]-10-(3-hydroxy-phenyl)-3a-methyl-3a,4,9,10-tetrahydro-2,9,10a-triaza-cyclopenta[b]fluorene-1,3-dione]",≤ 0.0398
15,"C=CCN(C)CCCN1C(=O)N2[C@H](c3cccc(O)c3)c3[nH]c4ccc(OCC)cc4c3C[C@@]2(C)C1=O (racemic) [Example 196, (3aSR,10RS)-2-[3-(Allyl-methyl-amino)-propyl]-6-ethoxy-10-(3-hydroyx-phenyl)-3a-methyl-3a,4,9,10-tetrahydro-2,9,10a-triaza-cyclopenta[b]fluorene-1,3-dione]",0.0398 to 0.251
16,"C=CCNCCN1C(=O)N2[C@H](c3cccc(O)c3)c3[nH]c4ccc(OCC)cc4c3C[C@@]2(C)C1=O (racemic) [Example 157, (3aSR,10RS)-2-(2-Allylamino-ethyl)-6-ethoxy-10-(3-hydroxy-phenyl)-3a-methyl-3a,4,9,10-tetrahydro-2,9,10a-triaza-cyclopenta[b]fluorene-1,3-dione]",≤ 0.0398
17,"CCOc1ccc2[nH]c3c(c2c1)C[C@@]1(C)C(=O)N(CCN2CCCCCC2)C(=O)N1[C@@H]3c1cccc(O)c1 (racemic) [Example 166, (3aSR,10RS)-2-(2-Azepan-1-yl-ethyl)-6-ethoxy-10-(3-hydroxy-phenyl)-3a-methyl-3a,4,9,10-tetrahydro-2,9,10a-triaza-cyclopenta[b]fluorene-1,3-dione]",0.0398 to 0.251
18,"C[C@@]12Cc3c([nH]c4ccc(OC(F)F)cc34)[C@@H](c3cccc(O)c3)N1C(=O)N(CCN)C2=O (racemic) [Example 283, (3aSR,10RS)-2-(2-Amino-ethyl)-6-(1,1-difluoro-methoxy)-10-(3-hydroxy-phenyl)-3a-methyl-3a4,9,10-tetrahydro-2,9,10a-triaza-cyclopenta[b]fluorene-1,3-dione]",0.0398 to 0.251
